Experimental data taken from patent publication US5698674A, “Triheterocyclic peptides capable of binding the minor and major grooves of DNA” (The Regents of the University of California, priority 1994, dated 1997).
“And” between values parts separate entries of the source, which are not always exact repeats. Equal values may be shown once. “Also recorded” adds a separate entry of the source. Read-outs that look alike come from different tables or passages of the source.

Key:
[1] = biological target: d(GGCGCAAATTTGGCGG)(SEQ ID NO:1)/d(CCGCCAAATTTGCGCC)(SEQ ID NO:2); test: Hoechst 33258 (Ht) fluorescence competition, equilibrium association constants with hexadecamer duplex; format: binding; details: for log KL1: association constant of first ligand, H2O, 10 mM phosphate buffer, pH 7.0, 10 mM NaCl, 35° C, for Ht = log KHt1, Dm, 2, 5a-c recalculated from previously collected data; for log KL1 / log KL2 / log KHtL: mean ± SD; for log KL1 / log KL2: Ht; for log KL2: association constant of second ligand, for Ht = log KHt2, Dm, 2, 5a-c recalculated; for log KHtL: binding of L to DNA:Ht; for log KL1 KL2: complex association constant
Description: Equilibrium constants for the association of 6a and 6b with oligomeric DNA were assessed by the complexing of tren-microgonotropen-a and -b to the hexadecamer d(GGCGCAAATTTGGCGG)(SEQ ID NO:1)/d(CCGCCAAATTTGCGCC)(SEQ ID NO:2) in aqueous solutions at 35° C. (2.8 mL solutions containing 0.01M phosphate buffer, pH 7.0, and 0.01M NaCl).
These reactions were followed by the competition of the dye Hoechst 33258 (Ht) with 6a and 6b for the A3 T3 minor groove binding site (an extension of Ht alone binding to dsDNA). The concentrations of 6a and 6b were confirmed by ^1 H NMR peak integration of resonances with those of an equivalent concentration of mesitoate.
As shown previously (Browne, K. A.; He, G.-X.; Bruice, T. C. J. Am. Chem. Soc. 1993, 115, 7072), monitoring the increase in fluorescence intensity as the association of Ht with the hexadecamer displaces prebound nonfluorescent ligands is an excellent method for determining equilibrium binding constants. FIG. 17 relates the equilibrium constants for the complexing of one and two Ht species to the hexadecamer with one and two L (where L=6a or 6b) binding to the hexadecamer, plus equilibrium constants for the simultaneous binding of one Ht and one L at the same site. [formula]
Eq 1, derived from FIG. 17, relates each of the equilibrium binding constants, the total fluorescence (Σθ), and [L] in terms of fluorescence (F) and [Ht]. The rationale behind FIG. 17 and the subsequent derivation of eq 1 have been described in considerable detail (Browne, et al., 1993, supra). The values of log KHt1 =7.6 and log KHt2 =9.1 used were determined from a reevaluation of data previously collected (Browne, et al., 1993, supra) and are very close to the previously determined values. A concentration independent static quenching term, Q', is included in eq 1 to account for the lessened fluorescent emission of the DNA:Ht:L complex compared to the DNA:Ht and DNA:Ht2 complexes.
The equilibrium association constants calculated as best fits to the experimental data points for 6a and 6b with eq 1 are presented in Table I. Plots of F vs. [Ht] using these constants at 8.0×10^-9, 1.0×10^-8, and 1.2×10^-8 M ligand and 5.0×10^-9 M in hexadecamer duplex are shown in FIGS. 3a and 3b.
Reagents and methods for DNA binding studies were exactly the same as used previously (He, et al., 1993, supra; Browne, et al., 1993, supra) unless stated otherwise. The values for the equilibrium constants for 2, 5a,b,c, Dm, and Ht were recalculated from previously collected data (Browne, et al., 1993, supra) using the curve fitting program SigmaPlot® 4.1.4 (Jandel Scientific, San Rafael, Calif.). The equilibrium constants for 6a and 6b were calculated with SigmaPlot® 4.1.4 using the reevaluated constants for Ht (KHt1 and KHt2).

[2] = test system: calf thymus topoisomerase I; test: Topoisomerase I inhibition assays (relaxation of supercoiled pBR322); format: biochemical; details: for inhibition of topoI relaxation of supercoiled pBR322: agent preincubated with DNA 1 hr before 18 hr topoI reaction, 37° C; for inhibition of topoI after partial relaxation: added after 0.5 hr topoI incubation, then 18 hr
Description: Inhibition of topoI's action on supercoiled pBR322 by 6b was compared to inhibition by Dm and 5b (dien-microgonotropen-b). In the first set of experiments, each agent was allowed to incubate with the DNA for 1 hr prior to the 18 hr topoI reaction period.
In closely related experiments, the mode of inhibition of topoI was examined. This was accomplished by allowing the supercoiled DNA to be partially relaxed for 0.5 hr with topoI before any other DNA ligands were added (FIG. 6).
The buffer for all of the 50 μL reactions was composed of 50 mM Tris-HCl, pH 7.5, 50 mM KCl, 10 mM MgCl2, and 1 mM EDTA that was filtered through a sterile 0.45μ Gelman Sciences Acrodisc. Every reaction mixture contained 1 μg of supercoiled pBR322 plasmid (Pharmacia) and, except for the supercoiled control, every reaction mixture included 10 units of calf thymus topoisomerase I (Bethesda Research Laboratories).
All reactions were extracted twice with water-saturated phenol, extracted once with chloroform, and precipitated with ammonium acetate and ethanol.
The different helical forms of pBR322 created by the relaxation assays were electrophoretically separated through a 4% NuSieve 3:1 (hydroxyethylated) agarose gel (vertical, 0.8 mm) in 40 mM Tris-acetate, pH 8.0 and 1 mM EDTA for 8 hr at 2 V/cm.

[3] = test system: 167 bp EcoRI/RsaI pBR322 restriction fragment; test: DNase I footprint analysis; format: binding
[4] = test system: .phi.X-174-RF DNA HaeIII restriction digest fragments; test: Electrophoretic mobility shift assay; format: binding; details: for RL vs. agent concentration: 1078 bp fragment; for order of effectiveness in increasing the apparent length of DNA fragments: RL values; for change in electrophoretic behavior: 150 μM
[5] = test system: d(CGCA3 T3 GCG (SEQ ID NO:3))2; test: Dynamics of ligand exchange in the 1:1 complex (ROESY NMR); format: binding; details: 10° C
Description: The data matrix was zero filled to 2K and appodized with a gaussian function to give a line broadening of 1 Hz in both frequency domains. The ROESY experiment was recorded at 10° C. using the Kessler pulse sequence (Kessler, H.; Griesinger, C.; Kerssebaum, R.; Wagner, E.: Ernst, R. J Am. Chem. Soc. 1987, 109, 607) with a mixing time of 50 ms and a locking field strength of 2.5 kHz.
The linearity of the NOE build-up with tm was checked for most of the dsDNA proton interactions between 50 and 180 ms and a 5-20 fold increase was found in the NOE volume integrals from the 50 to 180 ms mixing times. The exchange rate (kex) was calculated from eq 3 as follows:
kex =ln((1+R)/2.tau.m (1-R)), s^-1 eq(3) […]
The free energy of activation, ΔG*, for this exchange process at a certain temperature, T (K), was calculated from eq 4 (Gunther, H. "NMR Spectroscopy: An Introduction", John Wiley, New York, 1980, p. 241).
Exchanges between two equivalent binding sites have been proposed for dsDNA complexes of distamycin (Pelton et al., 1990, supra) and netropsin (Patel et al., 1985, supra). If we consider that the exchange is governed by a "flip-flop" mechanism (Pelton et al., 1990, supra) (FIG. 18), not excluding the possible existence of a fast sliding motion of 6b in the minor groove, the rate of exchange can be calculated (Experimental Section).

[6] = test system: d(GGCGCAAATTTGGCGG)(SEQ ID NO:1)/d(CCGCCAAATTTGCGCC)(SEQ ID NO:2); details: hexadecamer; Browne et al., 1993; cited from earlier work
mice = details: cited from earlier work
[7] = test system: d(CGCA3 T3 GCG (SEQ ID NO:3))2; details: 30° C; Pelton et al., 1990; cited from earlier work
[8] = 25 and 50 μM (0.25 and 0.5 ligand/bp DNA)

| Compound | log KL1 [1] | log KL2 ([1]; pH 7.0, 35° C) | log KHtL ([1]; pH 7.0, 35° C) | log KL1 KL2 ([1]; pH 7.0, 35° C) | inhibition of DNase I cleavage at the four A+T-rich binding sites ([3]; 5 μM (0.05 ligand/bp DNA)) | inhibition of DNase I cleavage at the four A+T-rich binding sites [3, 8] | RL vs. agent concentration [4] | order of effectiveness in increasing the apparent length of DNA fragments [4] | change in electrophoretic behavior [4] | further results |
| --- | --- | --- | --- | --- | --- | --- | --- | --- | --- | --- |
| CC(=O)Nc1cc(C(=O)Nc2cc(C(=O)Nc3cc(C(=O)NCCCN(C)C)n(C)c3)n(CCCCNCCN(CCN)CCN)c2)n(C)c1 [Compound 6b] | 8.9 ± 0.08 | 9.0 ± 0.2 | 10.3 ± 0.1 | 17.9 | did not produce detectable inhibition of DNase I cleavage | specific inhibition of cleavage was observed at three of the four sites | quite concentration dependent and sigmoidal in response | 6a^~ 6b>>distamycin>tren |  | KL1 (association constant) ([1]; first ligand, hexadecamer A3T3 site, pH 7.0, 35° C): 7.9e+08 M⁻¹ and 8e+08 M⁻¹; complex equilibrium association constants (KL1 KL2) ([1]; hexadecamer, Table I): 8×10^17 M^-2; quenching of Ht fluorescence ([1]; in DNA:Ht:L complex, from Q'): 36%; KL2 ([1]; second ligand, hexadecamer, pH 7.0, 35° C): 1e+09 M⁻¹; inhibition of topoI relaxation of supercoiled pBR322 ([2]; 10 μM): the predominant isomer is the fully supercoiled species; inhibition of topoI after partial relaxation ([2]; 30 μM): inhibited topoI even after pBR322 was considerably unwound; inhibition of topoI relaxation of supercoiled pBR322 ([2]; 30 μM): complete inhibition of topoI; electrophoretic mobility of DNA restriction fragments ([4]; increasing concentration 20, 40, 60, 80 μM): the mobility of DNA restriction fragments decreases; activation energy (ΔG*) of exchange [5]: ~ 17 kcal/mol |
| Cn1cc(NC(=O)c2cc(NC(=O)c3cc(NC=O)cn3C)cn2C)cc1C(=O)NCCC(=N)N [Dm, Distamycin] | 7.6 ± 0.09 | 8.4 ± 0.08 | 8.8 ± 0.09 | 16.0 | did not produce detectable inhibition of DNase I cleavage | specific inhibition of cleavage was observed at three of the four sites | does not demonstrate very marked changes even at the highest concentrations examined | 6a^~ 6b>>distamycin>tren | smaller changes at 150 μM (0.66 ligand/bp) than 6a or 6b at 40 μM | inhibition of topoI after partial relaxation ([2]; 150 μM): no effect; inhibition of topoI relaxation of supercoiled pBR322 ([2]; 150 μM): only partially inhibited; also recorded: partial inhibition; enhancements in or increased rates of DNase I cleavage at specific sequences ([3]; highest concentrations, 5'- and 3'-labeled fragments): showed enhancements similar to those found previously; equilibrium constant for 1:1 complex formation [6]: 4e+07 M⁻¹; LD50 (mice; i.p.): 500 mg/kg; LD50 (mice; i.v.): 75 mg/kg; rate constant for exchange [7]: 0.2 s⁻¹ |
| CN1CCN(c2ccc3[nH]c(-c4ccc5[nH]c(-c6ccc(O)cc6)nc5c4)nc3c2)CC1 [Ht, Hoechst 33258] | 7.6 and 7.6 ± 0.1 | 9.1 and 9.1 ± 0.2 |  |  |  |  |  |  |  |  |
| NCCN(CCN)CCN [Tren, tris(2-aminoethyl)amine] |  |  |  |  |  |  |  | 6a^~ 6b>>distamycin>tren | no apparent change in electrophoretic behavior |  |
